# According to patent publication US7368578B2, “Five-membered heterocyclic compounds” (Takeda Pharmaceutical Company Limited, priority 2002, dated 2008):
# Assays:
# human PPARγ1 = biological target: T1, human PPARγ1 (Homo sapiens, UniProt P37231); assay: Human PPARγ1 antagonist assay (luciferase reporter in PPARγ:RXRα:4ERPP/CHO-K1 cells); type: cell-based; settings: 10 nM compound A as stimulant, luciferase activity, 24 hrs, read-out: Inhibitory rate (%); for inhibition at 1 µM: test compound 10^−6 M
# T1 construct: expressed in transfected cells; host or cells: CHO-K1 cells stably transfected with pVgRXR2-hPPARγ and reporter plasmid pGL3-4ERPP-TK neo
# T1 sequence (P37231 1-477 isoform P37231-2): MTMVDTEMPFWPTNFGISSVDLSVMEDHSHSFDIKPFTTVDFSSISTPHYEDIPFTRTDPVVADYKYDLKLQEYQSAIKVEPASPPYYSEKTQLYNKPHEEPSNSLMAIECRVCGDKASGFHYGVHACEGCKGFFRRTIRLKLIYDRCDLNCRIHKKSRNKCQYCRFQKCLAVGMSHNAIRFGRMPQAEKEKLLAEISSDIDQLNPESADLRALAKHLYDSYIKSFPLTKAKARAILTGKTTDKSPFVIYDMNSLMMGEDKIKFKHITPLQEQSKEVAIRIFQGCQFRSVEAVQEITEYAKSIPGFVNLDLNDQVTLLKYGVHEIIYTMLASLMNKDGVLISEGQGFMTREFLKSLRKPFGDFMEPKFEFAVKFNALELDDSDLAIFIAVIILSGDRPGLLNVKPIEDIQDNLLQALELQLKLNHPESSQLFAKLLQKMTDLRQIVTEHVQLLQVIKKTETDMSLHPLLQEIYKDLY
# T1 sequence (P19793 1-462 partner): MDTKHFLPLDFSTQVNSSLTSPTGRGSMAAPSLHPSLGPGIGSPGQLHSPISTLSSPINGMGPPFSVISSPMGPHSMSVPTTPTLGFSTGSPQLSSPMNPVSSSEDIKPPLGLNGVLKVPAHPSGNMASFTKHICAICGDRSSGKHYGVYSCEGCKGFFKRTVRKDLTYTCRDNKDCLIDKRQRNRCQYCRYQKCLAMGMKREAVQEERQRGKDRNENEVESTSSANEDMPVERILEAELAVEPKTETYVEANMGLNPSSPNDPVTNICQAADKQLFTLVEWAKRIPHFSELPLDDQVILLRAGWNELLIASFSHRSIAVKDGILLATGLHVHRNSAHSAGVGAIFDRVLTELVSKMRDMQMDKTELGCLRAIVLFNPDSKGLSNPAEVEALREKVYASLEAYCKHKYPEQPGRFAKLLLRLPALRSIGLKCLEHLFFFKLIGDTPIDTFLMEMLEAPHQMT
# Experimental: PPARγ:RXRα:4ERPP/CHO-K1 cells (obtained in Reference Example 5a) cultured in Ham's F-12 medium (GIBCO, Inc.) supplemented with 10% fetal bovine serum (TRACE SCIENTIFIC, Ltd.) were seeded in a well of a 96 well white plate at 2×10^4 cells/well and cultured under 37° C. 5% CO2 conditions for 24 hrs. After removal of the medium, Ham's F-12 medium (GIBCO) containing 60 μl of 0.1% BSA (not containing fatty acid) (Wako Pure Chemical Industries, Ltd.), 20 μl of 10^−5M or 10^−6 M test compound and 20 μl of compound A having a final concentration of 10 nM as a stimulant were added, and the cells were cultured under 37° C. 5% CO2 conditions for 24 hrs. After removal of the medium, 40 μl of Pickagene LT7.5 (Wako Pure Chemical Industries, Ltd.) 2-fold diluted with HBSS (HANKS' BALANCED SALT SOLUTION) (BIO WHITTAKER Inc.) was added. After stirring, luciferase activity was measured using 1420 ARVO Multilabel Counter (Wallac, Inc.). In addition, a test similar to the above was conducted for the non-use of the aforementioned test compound alone and for the non-use of the aforementioned test compound and compound A to determine the luciferase activity.
# The human PPARγ1 antagonistic activity of the test compound was evaluated using percentages (% inhibition) wherein the luciferase activity when 10 nM compound A alone was added was 0%, and the luciferase activity when the test compound and compound A were not added was 100%. The concentration of the test compound was 10^−5 M for the compounds of Example 42 and 315 and 10^−6 M for other test compounds.
# After a CHO-K1 cell cultured in a cell culture flask (150 cm^2) (produced by Corning Costar Corporation, USA) containing Ham's F-12 medium (produced by Life Technologies, Inc., USA) supplemented with 10% fetal bovine serum (produced by Life Technologies, Inc., USA) was detached by treating with 0.5 g/L trypsin-0.2 g/L EDTA (ethylenediaminetetraacetic acid) (produced by Life Technologies, Inc., USA), the cell was washed with PBS (phosphate-buffered saline) (produced by Life Technologies, Inc., USA), centrifuged (1000 rpm, 5 minutes), and then suspended in PBS. Subsequently, the DNA was introduced into the cells under the conditions shown below using GENE PULSER (produced by Bio-Rad Laboratories, USA).
# Namely, to a cuvette having a 0.4 cm gap, added were 8×10^6 cells and 10 μg of plasmid pVgRXR2-hPPARγ obtained in Reference Example 4a and 10 μg of reporter plasmid pGL3-4ERPP-TK neo obtained in Reference Example 2a, which was subjected to electroporation at the voltage of 0.25 kV under the capacitance of 960 μF. Subsequently, the cell was transferred into a Ham's F-12 medium containing 10% fetal bovine serum and cultured for 24 hours and then the cells were detached again and centrifuged, and then suspended in HAM F12 medium containing 10% fetal bovine serum supplemented with 500 μg/ml of GENETICIN (produced by Life Technologies, Inc., USA) and 250 μg/ml of ZEOCIN (produced by Invitrogen, USA). The obtained suspension was diluted to the density of 10^4 cells/ml and inoculated to a 96-well plate (produced by Corning Costar Corporation, USA), which was cultured in a CO2 gas incubator at 37° C., whereby obtaining a GENETICIN- and ZEOCIN-resistant transformant. Subsequently, after the transformant cell line thus obtained was cultured in a 24-well plate (produced by Corning Costar Corporation, USA), selected was a cell line in which the luciferase was expressed and induced, i.e., PPARγ:RXRα:4ERPP/CHO-K1 cell by the addition of 10 μM pioglitazone hydrochloride.
SMILES,inhibition at 10 µM (human PPARγ1; test compound 10^−5 M) [%],melting point [°C],inhibition at 1 µM (human PPARγ1) [%]
"Cc1oc(-c2ccco2)nc1COc1ccc(COc2nn(Cc3ccccc3)cc2C=O)cn1 [Example 42, 1-benzyl-3-[(6-{[2-(2-furyl)-5-methyl-1,3-oxazol-4-yl]methoxy}-3-pyridinyl)methoxy]-1H-pyrazole-4-carbaldehyde]",50,104 to 105,
"CCOP(=O)(/C=C/c1cn(-c2ccccc2)nc1OCc1ccc(OCc2nc(-c3ccccc3)oc2C)c(OC)c1)OCC [Example 146, diethyl (E)-2-[3-({3-methoxy-4-[(5-methyl-2-phenyl-1,3-oxazol-4-yl)methoxy]benzyl}oxy)-1-phenyl-1H-pyrazol-4-yl]ethenylphosphonate]",,92 to 93,111
"CCOP(=O)(/C=C/c1cn(-c2ccccc2)nc1OCc1ccc(OCc2csc(N3CCOCC3)n2)c(OC)c1)OCC [Example 191, diethyl (E)-2-{3-[(3-methoxy-4-{[2-(morpholin-4-yl)-1,3-thiazol-4-yl]methoxy}benzyl)oxy]-1-phenyl-1H-pyrazol-4-yl}ethenylphosphonate]",,93 to 94,79
"CCOP(=O)(/C=C/c1cn(-c2ccccc2)nc1OCc1ccc(OCc2nc(-c3cccc(C(=O)O)c3)oc2C)c(OC)c1)OCC [Example 203, 3-[4-({4-[({4-[(E)-2-(diethoxyphosphoryl)ethenyl]-1-phenyl-1H-pyrazol-3-yl}oxy)methyl]-2-methoxyphenoxy}methyl)-5-methyl-1,3-oxazol-2-yl]benzoic acid]",,148 to 149,111
"CCOP(=O)(/C=C/c1cn(-c2ccccc2)nc1OCc1ccc(OCc2nc(-c3cccc(C(=O)OC)c3)oc2C)c(OC)c1)OCC [Example 211, methyl 3-[4-({4-[({4-[(E)-2-(diethoxyphosphoryl)ethenyl]-1-phenyl-1H-pyrazol-3-yl}oxy)methyl]-2-methoxyphenoxy}methyl)-5-methyl-1,3-oxazol-2-yl]benzoate]",,141 to 142,110
"CCOP(=O)(/C=C/c1cn(-c2ccccc2)nc1OCc1ccc(OCc2nc(-c3cccc(C(N)=O)c3)oc2C)c(OC)c1)OCC [Example 239, diethyl (E)-2-(3-{[4-({2-[3-(carbamoyl)phenyl]-5-methyl-1,3-oxazol-4-yl}methoxy)-3-methoxybenzyl]oxy}-1-phenyl-1H-pyrazol-4-yl)ethenylphosphonate]",,127 to 128,116
"CCOP(=O)(/C=C/c1cn(-c2ccccc2)nc1OCc1ccc(OCc2nc(-c3ccc(OC)c(C(=O)O)c3)oc2C)c(OC)c1)OCC [Example 252, 5-{4-({4-[({4-[(E)-2-(diethoxyphosphoryl)ethenyl]-1-phenyl-1H-pyrazol-3-yl}oxy)methyl]-2-methoxyphenoxy}methyl)-5-methyl-1,3-oxazol-2-yl}-2-methoxybenzoic acid]",,171 to 172,111

# Second part, the molecule after the results:
inhibition at 10 µM (human PPARγ1; test compound 10^−5 M) [%],melting point [°C],inhibition at 1 µM (human PPARγ1) [%],SMILES
,150 to 151,62,"CCOC(=O)c1cn(-c2ccccc2)nc1OCc1ccc(OCc2nc(-c3ccco3)oc2C)c(OC)c1 [Example 72, ethyl 3-[(4-{[2-(2-furyl)-5-methyl-1,3-oxazol-4-yl]methoxy}-3-methoxybenzyl)oxy]-1-phenyl-1H-pyrazole-4-carboxylate]"
,137 to 138,63,"COc1cc(COc2nn(-c3ccccc3)cc2C=O)ccc1OCc1nc(-c2ccco2)oc1C [Example 76, 3-[(4-{[2-(2-furyl)-5-methyl-1,3-oxazol-4-yl]methoxy}-3-methoxybenzyl)oxy]-1-phenyl-1H-pyrazole-4-carbaldehyde]"
,167 to 168,51,"COc1cc(COc2nn(-c3ccccc3)cc2C#N)ccc1OCc1nc(-c2ccco2)oc1C [Example 77, 3-[(4-{[2-(2-furyl)-5-methyl-1,3-oxazol-4-yl]methoxy)-3-methoxybenzyl)oxy]-1-phenyl-1H-pyrazole-4-carbonitrile]"
,152 to 153,96,"COc1cc(COc2nn(-c3ccccc3)cc2/C=C/P(=O)(OC(C)C)OC(C)C)ccc1OCc1nc(-c2ccco2)oc1C [Example 145, diisopropyl (E)-2-{3-[(4-{[2-(2-furyl)-5-methyl-1,3-oxazol-4-yl]methoxy}-3-methoxybenzyl)oxy]-1-phenyl-1H-pyrazol-4-yl}ethenylphosphonate]"
,111 to 112,82,"COc1cc(COc2nn(-c3ccccc3)cc2/C=C/c2csc(C)n2)ccc1OCc1nc(-c2ccco2)oc1C [Example 150 (E form), 2-(2-furyl)-4-({2-methoxy-4-[({4-[(E)-2-(2-methyl-1,3-thiazol-4-yl)ethenyl]-1-phenyl-1H-pyrazol-3-yl}oxy)methyl]phenoxy}methyl)-5-methyl-1,3-oxazole]"
,167 to 168,66,"CCC(=O)/C=C/c1cn(-c2ccccc2)nc1OCc1ccc(OCc2nc(-c3ccco3)oc2C)c(OC)c1 [Example 156, (1E)-1-{3-[(4-{[2-(2-furyl)-5-methyl-1,3-oxazol-4-yl]methoxy}-3-methoxybenzyl)oxy]-1-phenyl-1H-pyrazol-4-yl}-1-penten-3-one]"
,190 to 191,112,"CCc1nc(/C=C/c2cn(-c3ccccc3)nc2OCc2ccc(OCc3nc(-c4cccc(C(=O)O)c4)oc3C)c(OC)c2)cs1 [Example 224, 3-[4-({4-[({4-[(E)-2-(2-ethyl-1,3-thiazol-4-yl)ethenyl]-1-phenyl-1H-pyrazol-3-yl}oxy)methyl]-2-methoxyphenoxy}methyl)-5-methyl-1,3-oxazol-2-yl]benzoic acid]"
,,111,"COc1cc(COc2nn(-c3ccccc3)cc2/C=C/c2coc(C(C)C)n2)ccc1OCc1nc(-c2ccc(CC(=O)O)cc2)oc1C [Example 370, {4-[4-({4-[({4-[(E)-2-(2-isopropyl-1,3-oxazol-4-yl)ethenyl]-1-phenyl-1H-pyrazol-3-yl}oxy)methyl]-2-methoxyphenoxy}methyl)-5-methyl-1,3-oxazol-2-yl]phenyl}acetic acid]"
